This is an account of results in ChEMBL document CHEMBL1201862, “PubChem BioAssay data set” (2004).

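Interpolation was linear, between the two tested concentrations surrounding the appropriate level; five concentrations were tested over 48 hours in 96-well plates. Here, GI50 denotes the concentration required for 50% inhibition of growth.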 Activity calls are given as the source filed them. Cut-off read from the data, not from the text of the source: active = GI50 up to about 1.1 µM and inactive = higher. Where only a bound is given, the exact number is not on record here.

What all share (test): NCI tumour cell line growth inhibition, 48 h
The subject of test [1] is A549.
The test system of test [2] is COLO 205.
Test [3] relates to HT-29.
Test [4] deals with LOX IMVI.
Test [5] concerns MCF7.
Test [6] has as its system MDA-MB-435.
Test [7] concerns Malme-3M.
Test [8] deals with NCI-H460.
The subject of test [9] is OVCAR-5.
Test [10] relates to PC-3.
Test [11] concerns RPMI-8226.
Test [12] deals with SF-268.
The test system of test [13] is SK-MEL-28.
Test [14] has as its system SK-MEL-2.
Test [15] relates to SR.
Test [16] relates to SW-620.
For test [17], the system named is TK-10.
Test [18] deals with UACC-62.
For test [19], the system named is HL-60.
Test [20] relates to SF-539.

For the compound `CC1=CC[C@H](C[C@H](C#CCCCC2OCCO2)O[Si](C(C)C)(C(C)C)C(C)C)C(=O)CC1`, the GI50 in [1], in test [2], in test [3], in test [4], in [5] and in [6] was > 100 µM (inactive) throughout. In addition, the GI50 in test [7], in [8], in [9], in test [10], in test [11] and in [12] was > 100 µM (inactive) throughout. Moreover, the GI50 in test [13], in test [14], in test [15], in test [16], in test [17] and in test [18] was > 100 µM (inactive) in each case.

Consider `Cc1ccc(NC(=O)CC(=O)n2nc(C)c(/N=N/c3ccc(S(=O)(=O)CCOS(=O)(=O)O)cc3)c2C)cc1`, for which the GI50 in test [1], in test [2], in [19], in test [3], in test [4] and in test [5] was > 100 µM (inactive) in each case. The GI50 in test [6], in test [7], in test [8], in [9], in test [10] and in test [11] was > 100 µM (inactive) in each case. For the same compound, the GI50 in test [12], in [20], in [13], in [14], in test [16] and in [17] was > 100 µM (inactive) each time. Also, in [18], the GI50 is > 100 µM (inactive).

As for `O=C(C#CP(=O)(O)c1ccccc1)c1ccccc1`, the GI50 in test [1], in [2], in test [3], in [4], in test [5] and in [6] was > 100 µM (inactive) in each case. In addition, the GI50 in test [7], in test [8], in test [9], in [10], in [12] and in test [20] was > 100 µM (inactive) in each case. In addition, the GI50 in test [13], in test [14], in [15], in test [16], in [17] and in [18] was > 100 µM (inactive) each time.

For `CC1(C)N=C(N)N=C(N)N1c1cccc(OCc2cccc([N+](=O)[O-])c2)c1`, the GI50 was 4.18 µM (inactive) in test [1]; 9.93 µM (inactive) in test [2]; 9.95 µM (inactive) in test [19]; 6.03 µM (inactive) in [3]; 9.27 µM (inactive) in test [4]; 34.1 µM (inactive) in test [5]. The GI50 in test [6] is 17.7 µM (inactive); in test [7] it was > 53.1 µM (inactive); in test [8] it was 1.6 µM (inactive); in test [9], > 30.6 µM (inactive); in test [10], 14.4 µM (inactive); in [11], 32.7 µM (inactive). Moreover, the GI50 is 9.75 µM (inactive) in test [12]; 17.6 µM (inactive) in test [20]; > 55.2 µM (inactive) in [13]; > 64.3 µM (inactive) in test [14]; > 85.9 µM (inactive) in test [16]; 18.7 µM (inactive) in test [17]. In addition, the GI50 in test [18] was 6.11 µM (inactive).

`O=c1[nH]c(=O)n(COCc2ccccc2)cc1Nc1ccc(Br)cc1`: the GI50 in [1], in test [2], in test [19], in test [3], in [4] and in test [5] was > 100 µM (inactive) throughout. For the same compound, the GI50 in test [6] is > 100 µM (inactive); in [8], > 100 µM (inactive); in test [9], > 100 µM (inactive); in test [10] it was > 100 µM (inactive); in [11], > 100 µM (inactive); in [12], 28.5 µM (inactive). For the same compound, the GI50 in test [13], in test [15], in test [16] and in test [18] was > 100 µM (inactive) in each case.

For `Cc1cc(-c2nc3ccccc3s2)ccc1NC(=O)[C@H](C)N`, the GI50 is 13.7 µM (inactive) in test [1]; 13.2 µM (inactive) in test [2]; 14.4 µM (inactive) in [3]; 5.06 µM (inactive) in test [4]; 0.372 µM (active) in test [5]; 7.18 µM (inactive) in test [6]. For the same compound, the GI50 was 24 µM (inactive) in test [7]; 10.1 µM (inactive) in [8]; 0.441 µM (active) in [9]; 13.1 µM (inactive) in test [10]; 18.3 µM (inactive) in test [12]; 15.7 µM (inactive) in [13]. Also, the GI50 in [14] is 17.5 µM (inactive); in test [15], 5.2 µM (inactive); in test [16], 14.8 µM (inactive); in test [18], 14.8 µM (inactive).

In the case of `Cc1ccc2c(c1)SC1=Nc3sc4cc(C)ccc4[n+]3CN12`, the GI50 in test [1] is 2.68 µM (inactive); in [2], 2.7 µM (inactive); in test [19] it was 2.07 µM (inactive); in [3], 6.82 µM (inactive); in test [4], 21 µM (inactive); in test [5], 4.44 µM (inactive). Besides, the GI50 in [6] was 4.22 µM (inactive); in test [7], 0.568 µM (active); in test [8], 11.7 µM (inactive); in test [9], 18.3 µM (inactive); in test [10], 15.4 µM (inactive); in test [11], 1.81 µM (inactive). Moreover, the GI50 in test [12] is 8.26 µM (inactive); in test [20] it was 3.73 µM (inactive); in test [13], 13 µM (inactive); in test [14] it was 3.51 µM (inactive); in test [16], 10.4 µM (inactive); in test [17], 14.9 µM (inactive). Also, the GI50 in test [18] was 3.4 µM (inactive).

For `CSc1nc(Cl)c2c(n1)Sc1nc3ccccc3n1C2O` (stereo not given), the GI50 is 7.38 µM (inactive) in [1]; 2.64 µM (inactive) in [2]; 3.52 µM (inactive) in test [3]; 0.861 µM (active) in [4]; 4.02 µM (inactive) in test [5]; 3.63 µM (inactive) in test [6]. For the same compound, the GI50 in [7] was 4.91 µM (inactive); in test [8], 13.4 µM (inactive); in [9] it was 4.92 µM (inactive); in [10], 4.29 µM (inactive); in [11], 2.85 µM (inactive); in [12], 5.25 µM (inactive). Moreover, the GI50 in test [20] was 1.83 µM (inactive); in test [13], 6.79 µM (inactive); in [14], 4.38 µM (inactive); in test [16] it was 3.52 µM (inactive); in test [17] it was 7.13 µM (inactive); in test [18], 3.42 µM (inactive).

On to `Cc1nnc2n1N=C(c1cc(F)c(Cl)cc1Cl)/C(=C/c1ccc(Cl)cc1)S2`, for which the GI50 in test [1] is 18 µM (inactive); in [2], 33.4 µM (inactive); in [19], 26.4 µM (inactive); in test [3] it was 11.7 µM (inactive); in test [4], 9.33 µM (inactive); in test [5], 14.4 µM (inactive). Also, the GI50 was 13.6 µM (inactive) in [6]; 20.6 µM (inactive) in test [7]; 13.9 µM (inactive) in test [8]; 6.46 µM (inactive) in [9]; 20.6 µM (inactive) in test [10]; 15.5 µM (inactive) in test [11]. Moreover, the GI50 was 41.8 µM (inactive) in test [12]; 25.9 µM (inactive) in [20]; 38.8 µM (inactive) in test [13]; 8.15 µM (inactive) in test [14]; 37.7 µM (inactive) in test [16]; 28.7 µM (inactive) in test [17]. Besides, the GI50 in test [18] was 15 µM (inactive).

For the compound `Fc1cccc2nc(-c3ccccc3)cc(OCc3ccccc3)c12`, the GI50 in test [1] was 83.4 µM (inactive); in test [2], > 100 µM (inactive); in test [19], > 100 µM (inactive); in [3], > 100 µM (inactive); in test [4], > 100 µM (inactive); in test [5], 59.7 µM (inactive). Besides, the GI50 in test [6], in test [7], in test [8], in [9], in test [10] and in test [11] was > 100 µM (inactive) in each case. The GI50 in test [12], in test [13], in test [14], in [15], in [16] and in test [17] was > 100 µM (inactive) throughout. Moreover, in test [18], the GI50 was > 100 µM (inactive).

For `CCC/C(Cl)=N\OC(=O)Nc1ccc(OC(F)(F)F)cc1`, the GI50 is 20.2 µM (inactive) in test [1]; 1.82 µM (inactive) in test [2]; 3.25 µM (inactive) in test [19]; 18.2 µM (inactive) in [3]; 2.72 µM (inactive) in [4]; 8.26 µM (inactive) in test [5]. Also, the GI50 in [6] is 22.1 µM (inactive); in [7], 1.68 µM (inactive); in [8] it was 20.5 µM (inactive); in [9] it was 19.6 µM (inactive); in test [10], 17.7 µM (inactive); in test [11], 2.11 µM (inactive). In addition, the GI50 is 24.7 µM (inactive) in test [12]; 16.7 µM (inactive) in test [20]; 19.6 µM (inactive) in [13]; 17.6 µM (inactive) in [14]; 2.53 µM (inactive) in [16]; 3.3 µM (inactive) in test [17]. Also, the GI50 in test [18] was 18.8 µM (inactive).
